In patent US20230091848A1, “DISEASE DETECTION AND TREATMENT BASED ON PHENYLACETYL GLUTAMINE LEVELS” (The Cleveland Clinic Foundation, priority 2020, published 2023):

Assays:
[1] = system: FeCl3-induced carotid artery injury model; assay: Carotid artery FeCl3 injury thrombosis assay; type: in vivo, mice; details: carvedilol 1.5 g/kg for one week; PAGln i.p.
Experimental: Briefly, rhodamine 6G (100 μL; 0.5 mg/mL) was injected directly into the right jugular vein to label platelets. The left carotid artery was exposed and injured by placing a FeCl3-soaked filter paper for 1 minute. […] Time to cessation of blood flow through clot formation for all studies was determined by visual inspection by two different investigators. End points were set as cessation of blood flow for 30 seconds to 30 minutes.

MEG01 cells [2] = assay: Dynamic mass redistribution (DMR) in MEG01 cells; type: cell-based, human
Experimental: (§1) Before proceeding for the experiments, cells were subjected to overnight incubation in reduced serum media opti-MEM. […] The cells were briefly centrifuged at room temperature at low speed (100 g for 10-15 sec) to allow settling down the cells at the bottom of the plate. After that, cells were allowed to temperature equilibrate for 1 h at room temperature prior to run DMR measurement. Firstly, basal DMR responses were graphed for around 15 min to obtain a baseline read that defines the zero level and also ensures the signal is stable. […] DMR response signal was recorded for 60-90 minutes post compound of interest addition.

HEL92.1.7 cells = assay: Dynamic mass redistribution (DMR) in HEL92.1.7 cells; type: cell-based, human; details: increasing concentrations
Experimental: as §1

[3] = Metabolism of phenylacetic acid after i.p. injection; type: in vivo; details: intraperitoneal (i.p.) injection in mice
[4] = system: human platelet rich plasma (PRP); assay: Platelet aggregometry in platelet rich plasma; type: cell-based; details: inhibitor 10 μM; PAGln 100 μM; ADP 2 μM
Experimental: ADP (up to 4 μM), TRAP6 (up to 10 μM) and collagen (up to 1.0 μg/mL) were used as indicated to initiate aggregation with constant stirring (600 rpm).

MEG01 cells [5] = assay: cAMP assay in MEG01 cells; type: cell-based, human
Experimental: Real-time (RT) PCR in MEG01 cells: Total RNA was isolated from MEG01 cells following TRIZOL RNA isolation protocol post 40 h of siRNA transfection. […] Real time (RT) PCR was carried out following TaqMan Gene Expression Assays protocol using RT primers and probes of ADRA2A (assay Id Hs01099503_s1), ADRA2B (assay Id Hs00265081 s1) and ADRB2 (assay Id Hs00240532_s1) from ThermoFisher Scientific. cAMP assay in MEG01, Platelets and HEK293 cells: Intracellular cAMP levels were measured using CatchPoint Cyclic-AMP Fluorescent Assay Kit from molecular devices (Cat. R8089). Briefly, MEG01 cells were washed with 1×HBSS buffer with HEPES (20 mM; pH 7.4) and re-suspended in stimulation buffer (1×HBSS, HEPES (20 mM); pH 7.4, IBMX (0.5 mM), Rolipram (0.1 mM) and BSA (0.1%)). The cells were further seeded into 96 well cell culture plates with a density of ˜100 k cells per well in 100 μL stimulation buffer. Similarly, human washed platelets re-suspended very gently in stimulation buffer and seeded into a 96-well cell culture plates with ˜4-6 million platelets per well in 100 μL stimulation buffer. Both the MEG01 cells and platelets were kept thereafter at 37° C. incubator for 10 min before addition of the inhibitors or test compounds. Following incubation with stimulation buffer, 10 μL (10× concentration) of modulators/inhibitors (when necessary) were added and kept for 15 min at 37° C. […] The test compounds were made in buffer T (1×HBSS, HEPES (20 mM); pH 7.4, IBMX (0.5 mM) and Rolipram (0.1 mM)). The reaction was stopped by adding 50 μL of lysis buffer (provided in the kit CatchPoint Cyclic-AMP Fluorescent Assay Kit Cat. R8089-Molecular Devices), further added with IBMX (0.5 mM) and Rolipram (0.1 mM)) and agitated for 10 min in a plate shaker to facilitate cell lysis. Lysed cells are immediately proceeded to cAMP assay. For the quantification of cAMP, the lysed sample (40 μL), buffer control and cAMP calibrators were added in appropriate wells of a 96-well clear bottom, black wall cAMP assay plates (provided in the kit). Thereafter, reconstituted rabbit anti-cAMP antibody (40 μL) was added to all the wells and mix for 5 min on a plate shaker to ensure mixing. In the next step, reconstituted HRP-cAMP conjugate (40 μL) was added to every well, mixed properly and kept at room temperature for 2 h. The plate contents were aspirated thereafter and washed with wash buffer (300 μL (provided in the kit)) 4 times. Spotlight red substrate (provided in the kit) was added to each well minimizing the time between starting and finishing in dark. The plate was covered with aluminum foil and left at room temperature for at least 10 min before reading fluorescence intensity in a FlexStation 3 Multi-Mode Microplate Reader-Molecular devices. […] For cAMP assay in adherent cell lines, parental HEK293, and β2-HEK293 (stable) cells were seeded into 96-well cell culture microplates with approximately 50 k cells per well in DMEM (100 μL) media supplemented with FBS (10%), penicillin (100 U/mL) and streptomycin (100 μg/mL) in a humidified atmosphere at 37° C. in 5% CO2. Cells were grown for 24 h before proceeding for cAMP experiment following similar method as described for MEG01 cells. Intracellular Ca^2+ measurement: Intracellular Ca^2+ in MEG01, HEL92.1.7, parental HEK293, β2-HEK293 (stable) cells, empty vector (EV) transfected HEK293 cells, ADRA2A transfected HEK293 cells and in α2B-HEK293 stable cells was measured using FLIPR Calcium 5 Assay Kit-Molecular devices (Cat. R8186). […]

COc1ccccc1OCCNCC(O)COc1cccc2[nH]c3ccccc3c12 (centres unmarked) [carvedilol]
pro-thrombotic effect of PAGln on clot formation rate and occlusion time [1]: reversed by pretreatment of mice with carvedilol

NC[C@H](O)c1ccc(O)c(O)c1 [norepinephrine]
DMR dose response curves (MEG01 cells [2]; increasing concentrations): saturable and specific DMR dose response curves | DMR dose-response signal (HEL92.1.7 cells): like norepinephrine

O=C(O)Cc1ccccc1 [phenylacetic acid]
metabolic fate [3]: predominantly metabolized into PAGly

N[C@@H](Cc1ccccc1)C(=O)O [phenylalanine]
DMR response (MEG01 cells [2]; addition of ligand): displayed no DMR response

CC(C)NCC(O)COc1cccc2ccccc12 (centres unmarked) [propranolol]
DMR response to ATP after ADR inhibitors (MEG01 cells [2]; ATP 50 μM, inhibitor 10 μM): remained unchanged | DMR response of isoproterenol (ISO) after ADR inhibitors (MEG01 cells [2]; ISO 10 μM, inhibitor 10 μM): diminished | PAGln-induced DMR response after ADR inhibitors (MEG01 cells [2]; PAGln 100 μM, inhibitor 10 μM, 30 min): substantially reduced | PAGln induced hyperresponsiveness of platelet aggregation [4]: attenuated the PAGln induced hyperresponsiveness | intracellular cAMP production after ISO treatment, with ADR inhibitors (MEG01 cells [5]): reduced | PAGln induced intracellular cAMP production after ADR inhibitors (MEG01 cells [5]; PAGln 100 μM, 5 min exposure, inhibitor 10 μM): inhibited PAGln (5 min exposure) induced intracellular cAMP production
